Experimental data reported in ChEMBL document CHEMBL1129085.
Active and inactive are the calls of the source. The calls are words filed in the database; no cut-off is given here.

Key:
[1] = target: Estrogen receptor (Rattus norvegicus) (UniProt P06211+Q62986); assay: Binding affinity for rat uterine estrogen receptor relative to estradiol; type: protein assay
[2] = target: T1, Estrogen receptor (Mus musculus) (UniProt O08537+P19785); assay: Anti-uterotropic effect as inhibition of 0.06 ug/injection estrone-induced uterine weight gain in mice at 10 ug/injection dose; Yes; type: functional
[3] = target: T1, Estrogen receptor (Mus musculus); assay: Uterotrophic effect in mice at 10 ug/injection dose; No; type: functional, tissue-based; settings: Uterus
[4] = target: T1, Estrogen receptor (Mus musculus)
Description: Anti-uterotropic effect as inhibition of 0.06 ug/injection estrone-induced uterine weight gain in mice at 10 ug/injection dose; No

T1 sequence (O08537 whole entry, looked up): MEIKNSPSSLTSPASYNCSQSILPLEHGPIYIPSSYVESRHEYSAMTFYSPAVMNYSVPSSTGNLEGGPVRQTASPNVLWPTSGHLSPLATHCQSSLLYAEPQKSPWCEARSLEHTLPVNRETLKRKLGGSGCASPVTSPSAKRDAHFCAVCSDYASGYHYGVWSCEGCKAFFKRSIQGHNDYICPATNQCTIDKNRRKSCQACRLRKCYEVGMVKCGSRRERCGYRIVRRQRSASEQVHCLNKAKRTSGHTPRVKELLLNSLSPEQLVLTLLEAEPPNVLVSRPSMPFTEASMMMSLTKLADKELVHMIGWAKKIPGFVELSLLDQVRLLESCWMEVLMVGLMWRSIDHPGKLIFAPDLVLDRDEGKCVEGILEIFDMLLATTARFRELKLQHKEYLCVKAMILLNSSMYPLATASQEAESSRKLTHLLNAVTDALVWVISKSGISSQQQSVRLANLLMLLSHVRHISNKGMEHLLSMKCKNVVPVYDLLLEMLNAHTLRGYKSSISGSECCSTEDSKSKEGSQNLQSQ
T1 sequence (P19785 whole entry, looked up): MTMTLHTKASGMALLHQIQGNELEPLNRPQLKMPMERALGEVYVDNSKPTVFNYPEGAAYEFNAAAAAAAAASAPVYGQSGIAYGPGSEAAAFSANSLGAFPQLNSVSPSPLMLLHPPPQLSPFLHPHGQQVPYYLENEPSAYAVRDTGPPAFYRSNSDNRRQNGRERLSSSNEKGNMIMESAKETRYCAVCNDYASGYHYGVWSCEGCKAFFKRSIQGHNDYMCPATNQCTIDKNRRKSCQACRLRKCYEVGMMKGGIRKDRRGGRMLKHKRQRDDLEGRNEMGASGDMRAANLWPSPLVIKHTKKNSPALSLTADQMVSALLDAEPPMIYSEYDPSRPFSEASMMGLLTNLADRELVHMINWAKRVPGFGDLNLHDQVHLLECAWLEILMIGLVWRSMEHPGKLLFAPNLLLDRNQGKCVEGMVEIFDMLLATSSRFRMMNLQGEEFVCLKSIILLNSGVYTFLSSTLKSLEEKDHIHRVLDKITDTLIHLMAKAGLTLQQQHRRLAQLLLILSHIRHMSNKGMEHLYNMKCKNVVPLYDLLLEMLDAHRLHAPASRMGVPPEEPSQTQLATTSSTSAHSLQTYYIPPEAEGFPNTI

Row | RBA [1] [%] | Uterotrophic activity [3] | Antiuterotrophic activity [4] | SMILES | Antiuterotrophic activity [2]
1 | < 0.001 | inactive | inactive | CCCCN(C)C(=O)CCCCCCCCCCCC[C@@H]1C[C@H](O)[C@@]2(C)CC[C@@H]3c4ccc(O)cc4CC[C@H]3[C@H]12 | 
2 | < 0.001 | inactive | inactive | CCCCN(C)C(=O)CCCCCCCCCCCC[C@H]1C[C@H](O)[C@@]2(C)CC[C@@H]3c4ccc(O)cc4CC[C@H]3[C@H]12 | 
3 | 0.001 | inactive | inactive | CCCCN(C)C(=O)CCCCCCCCCCC1C[C@H](O)[C@@]2(C)CC[C@@H]3c4ccc(O)cc4CC[C@H]3[C@H]12 (some centres not stated) | 
4 | 0.05 | inactive | inactive | CCCCN(C)C(=O)CCCCCCCCCC[C@H]1C[C@H](O)[C@@]2(C)CC[C@@H]3c4ccc(O)cc4CC[C@H]3[C@H]12 | 

The next lines start with the compound.

Row | SMILES | RBA [1] [%] | Uterotrophic activity [3] | Antiuterotrophic activity [4] | Antiuterotrophic activity [2]
5 | CCCCN(C)C(=O)CCCCCCCCCC[C@@H]1Cc2cc(O)ccc2[C@H]2CC[C@]3(C)[C@@H](O)CC[C@H]3[C@H]12 | 1.2 | inactive |  | inactive
6 | CCCCN(C)C(=O)CCCCCCCCC1C[C@H](O)[C@@]2(C)CC[C@@H]3c4ccc(O)cc4CC[C@H]3[C@H]12 (some centres not stated) | < 0.001 | inactive | inactive | 
7 | CCCCN(C)C(=O)CCCCCCCCCC[C@@H]1C[C@H](O)[C@@]2(C)CC[C@@H]3c4ccc(O)cc4CC[C@H]3[C@H]12 | < 0.001 |  |  | 
8 | CCCCN(C)C(=O)CCCCCCCCCC[C@]1(O)CC[C@H]2[C@@H]3CCc4cc(O)ccc4[C@H]3CC[C@@]21C | 0.01 | inactive | inactive | 
